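Exposure lasted 48 hours, with cells grown in 96-well plates and compounds tested at five concentrations. Abbreviation: GI50, concentration required for 50% inhibition of growth.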 Activity calls are given as the source filed them. No stated cut-off is given here; in the data, active = GI50 up to about 1.1 µM and inactive = higher.
Columns and labels:
Assay in all cases: growth of human tumour cells (NCI), 48 h
HL-60 = system: HL-60
RPMI-8226 = system: RPMI-8226
Malme-3M = system: Malme-3M
K562 = system: K562
SN12C = system: SN12C
KM12 = system: KM12
MOLT-4 = system: MOLT-4
M19-MEL = system: M19-MEL
LOX IMVI = system: LOX IMVI
HCT-116 = system: HCT-116
LXFL 529 = system: LXFL 529
ACHN = system: ACHN
EKVX = system: EKVX
M14 = system: M14
DMS-273 = system: DMS-273
XF498 = system: XF498
HCT-15 = system: HCT-15
IGROV-1 = system: IGROV-1
HOP-62 = system: HOP-62
COLO 205 = system: COLO 205
UACC-62 = system: UACC-62
SK-MEL-2 = system: SK-MEL-2
HCC 2998 = system: HCC 2998
CCRF-CEM = system: CCRF-CEM
CAKI-1 = system: CAKI-1
SK-OV-3 = system: SK-OV-3
HOP-92 = system: HOP-92
SF-268 = system: SF-268
OVCAR-3 = system: OVCAR-3
OVCAR-4 = system: OVCAR-4
NCI-H522 = system: NCI-H522
SW-620 = system: SW-620
DMS-114 = system: DMS-114
SR = system: SR
SNB-75 = system: SNB-75
SK-MEL-28 = system: SK-MEL-28
DLD-1 = system: DLD-1
U-251 = system: U-251
OVCAR-8 = system: OVCAR-8
HT-29 = system: HT-29
786-0 = system: 786-0
TK-10 = system: TK-10
UO-31 = system: UO-31
OVCAR-5 = system: OVCAR-5
NCI-H226 = system: NCI-H226
NCI-H23 = system: NCI-H23
KM-20L2 = system: KM-20L2
SK-MEL-5 = system: SK-MEL-5
A498 = system: A498
UACC-257 = system: UACC-257
A549 = system: A549
SNB-78 = system: SNB-78
SF-295 = system: SF-295
NCI-H460 = system: NCI-H460
RXF 393 = system: RXF 393
SF-539 = system: SF-539

O=c1n(CCCCn2c(=O)n(CC3CS3)c3ccccc32)c2ccccc2n1CC1CS1 (centres undefined)
GI50 (HL-60): 2.17 µM (inactive)
GI50 (RPMI-8226): 10.9 µM (inactive)
GI50 (Malme-3M): 10.5 µM (inactive)
GI50 (K562): 15.7 µM (inactive)
GI50 (SN12C): 14.1 µM (inactive)
GI50 (KM12): 11.4 µM (inactive)
GI50 (MOLT-4): 1.95 µM (inactive)
GI50 (M19-MEL): 19.2 µM (inactive)
GI50 (LOX IMVI): 3.14 µM (inactive)
GI50 (HCT-116): 18.7 µM (inactive)
GI50 (LXFL 529): 14.3 µM (inactive)
GI50 (ACHN): 25.1 µM (inactive)
GI50 (EKVX): 24.3 µM (inactive)
GI50 (M14): 8.99 µM (inactive)
GI50 (DMS-273): 19.2 µM (inactive)
GI50 (XF498): 6.56 µM (inactive)
GI50 (HCT-15): 18.2 µM
GI50 (IGROV-1): 13.5 µM (inactive)
GI50 (HOP-62): 22.3 µM (inactive)
GI50 (COLO 205): 19 µM (inactive)
GI50 (UACC-62): > 10 µM (inactive)
GI50 (SK-MEL-2): 11.9 µM (inactive)
GI50 (HCC 2998): 19.7 µM (inactive)
GI50 (CCRF-CEM): 17.1 µM (inactive)
GI50 (CAKI-1): 17.3 µM (inactive)
GI50 (SK-OV-3): 58.1 µM (inactive)
GI50 (HOP-92): 23.9 µM (inactive)
GI50 (SF-268): 24.9 µM (inactive)
GI50 (OVCAR-3): 10.4 µM (inactive)
GI50 (OVCAR-4): 15.5 µM (inactive)
GI50 (NCI-H522): 16.6 µM (inactive)
GI50 (SW-620): 18.6 µM (inactive)
GI50 (DMS-114): > 10 µM (inactive)
GI50 (SR): 3.87 µM (inactive)
GI50 (SNB-75): 26.1 µM (inactive)

C[C@]12CC[C@H](O)CC1=CC[C@@H]1C2CC[C@]2(C)NC(=O)C(C#N)CC12 (some centres undefined)
GI50 (HL-60): > 100 µM (inactive)
GI50 (RPMI-8226): > 100 µM (inactive)
GI50 (Malme-3M): > 100 µM (inactive)
GI50 (SK-MEL-28): 66.8 µM (inactive)
GI50 (K562): 6.89 µM (inactive)
GI50 (KM12): > 100 µM (inactive)
GI50 (DLD-1): > 100 µM (inactive)
GI50 (MOLT-4): > 100 µM (inactive)
GI50 (M19-MEL): > 100 µM (inactive)
GI50 (U-251): > 100 µM (inactive)
GI50 (OVCAR-8): > 100 µM (inactive)
GI50 (HCT-116): > 100 µM (inactive)
GI50 (LXFL 529): > 100 µM (inactive)
GI50 (ACHN): 28.6 µM (inactive)
GI50 (HT-29): > 100 µM (inactive)
GI50 (EKVX): > 100 µM (inactive)
GI50 (786-0): > 100 µM (inactive)
GI50 (M14): > 100 µM (inactive)
GI50 (TK-10): > 100 µM (inactive)
GI50 (DMS-273): > 100 µM (inactive)
GI50 (UO-31): > 100 µM (inactive)
GI50 (XF498): > 100 µM (inactive)
GI50 (HCT-15): 37.8 µM
GI50 (OVCAR-5): > 100 µM (inactive)
GI50 (NCI-H226): > 100 µM (inactive)
GI50 (IGROV-1): > 100 µM (inactive)
GI50 (NCI-H23): > 100 µM (inactive)
GI50 (HOP-62): > 100 µM (inactive)
GI50 (UACC-62): 15.7 µM (inactive)
GI50 (KM-20L2): > 100 µM (inactive)
GI50 (SK-MEL-5): > 100 µM (inactive)
GI50 (SK-MEL-2): > 100 µM (inactive)
GI50 (A498): > 100 µM (inactive)
GI50 (HCC 2998): > 100 µM (inactive)
GI50 (UACC-257): > 100 µM (inactive)
GI50 (A549): > 100 µM (inactive)
GI50 (CCRF-CEM): > 100 µM (inactive)
GI50 (CAKI-1): > 100 µM (inactive)
GI50 (SNB-78): > 100 µM (inactive)
GI50 (SK-OV-3): > 100 µM (inactive)
GI50 (OVCAR-3): > 100 µM (inactive)
GI50 (OVCAR-4): > 100 µM (inactive)
GI50 (SW-620): > 100 µM (inactive)
GI50 (SF-295): 12.8 µM (inactive)
GI50 (NCI-H460): > 100 µM (inactive)
GI50 (RXF 393): 55.1 µM (inactive)
GI50 (DMS-114): > 100 µM (inactive)
GI50 (SF-539): > 100 µM (inactive)
GI50 (SNB-75): 51.4 µM (inactive)
